From patent US20120003151A1, “METHOD FOR EARLY IMAGING OF ATHEROSCLEROSIS” (priority 2009, published 2012)

Tests used:
[1] = biological target: T1, folate receptor (Mus musculus, UniProt Q05685); assay: Autoradiography and histology of aortas after EC20-99mTc injection; format: in vivo, mice; parameters: from tissue; host or cells: atherosclerotic aortas / aorto-cardiac region of living apoE-/- mice (lesion macrophages)
Description: In order to image areas of accumulation of EC20-^99mTc in atherosclerotic aortas, apoE−/− mice on a normal or Western diet were injected with EC20-^99mTc, euthanized, and thoracic aortas were excised. […] For cross sections, aortic roots and arches were cut and embedded in Tissue-Tek® O.C.T.™ mounting medium and frozen in liquid nitrogen. Serial sections were cut with a Leica CM1800 cryostat and placed on polylysine coated microscope slides (Thermo Scientific). Either whole aortas or aortic arch cross sections (40 μm) were exposed to a phosphor screen for 18 hours at 4° C. The phosphor screen was read using a Typhoon phosphorimager (GE Healthcare) at a resolution of 50 microns. Aortic tissue sections (10 m thick) adjacent to those used for autoradiography were also used for histology. H&E staining was performed to visualize lesion morphology. H&E staining of the sections was performed as follows.
The slides were fixed for 10 minutes in zinc-buffered formalin. The slides were washed with distilled water. The slides were immersed in Gills-3 hematoxylin for 5 minutes. The slides were rinsed in distilled water and dipped twice in acidic ethanol. The slides were rinsed for 30 seconds with distilled water and for 3 minutes in tap water. The slides were transferred to alcoholic Eosin Y for 20 seconds. The slides were rinsed with water and dehydrated in 2 changes of 95% ethanol, 2 changes of 100% ethanol, and 2 changes of xylenes (3 minutes per change). Coverslips were mounted using Permount™ mounting medium and allowed to dry overnight. Slides were visualized with a light microscope (4× objective). In some cases, the percentage of lumen occlusion was analyzed using ImageJ software (National Institutes of Health).
Staining with the macrophage-specific monoclonal antibody (Mac-3/CD107b; eBioscience Inc.) was performed as follows. Aortic arch sections were fixed with zinc-buffered formalin for 10 min, and endogenous biotin and peroxidase activity were blocked. Sections were incubated with anti-mouse CD107b antibody (1:50 dilution) for 1 h, and after washing, incubated with goat anti-rat biotinylated antibody (KPL Protein Research Products) at a 1:500 dilution for 30 min. After washing, streptavidin-HRP (BD Pharmingen) was added for an additional 30 min. Slides were developed with diaminobenzidine substrate (BD Pharmingen) according to manufacturer's instructions. Negative control consisted of slides developed in the absence of primary antibody. An Olympus BH-2 microscope coupled with a CCD camera was used to obtain light photomicrographs. […]

[2] = biological target: T1, folate receptor
Description: (§1) EC20-^99mTc was prepared as described (Leamon et al., Bioconjug Chem, 2002, 13(6): 1200-10; incorporated herein by reference). Vials containing lyophilized EC20 were heated at 100° C. for 5 min, after which two mL of a 925 MBq/mL solution of sodium pertechnetate (Cardinal Health) was added and the vial was heated for an additional 15 min. After dilution with the desired volume of saline, mice were injected i.p. with either 400 μL of imaging agent (18.5 MBq, ˜250 nmoles/Kg of EC20) or the same volume of imaging agent supplemented with 100-fold molar excess of free folic acid (to compete for unoccupied folate receptors). Unbound EC20-^99mTc was allowed to clear from the tissues for a period of four hours prior to imaging.
To analyze the accumulation of EC20-^99mTc in mouse aortas and heart tissues, mice were euthanized and thoracic aortas excised. Radioactivities were counted for 2 min using a gamma-counter (Packard). Results are reported as % ID/g tissue.
In order to assess whether EC20-^99mTc is in fact targeting these regions of enhanced atherosclerosis, thoracic aortas and hearts were dissected, and accumulation of EC20-^99mTc in the resected tissues was quantitated by gamma counting.

[3] = tested on: FR+ macrophages; assay: EC20-99mTc imaging after macrophage depletion with clodronate liposomes; format: in vivo; details: apoE-/- mice, 8 weeks Western diet, 4 mg clodronate/dose i.p. daily for 5 days
Description: PBS- and clodronate liposomes were synthesized as described (Buiting et al., J. Immunol. Methods, 1996, 192(1-2): 55-62; incorporated herein by reference). 86 mg egg phosphatidylcholine +8 mg cholesterol were dissolved in 1:1 chloroform:methanol. Solvent was evaporated using a rotoevaporator for 15 min, and the resulting film was rehydrated with PBS or a 0.6 M solution of clodronate (Sigma) in PBS for 2 hours. Resulting multi-lamellar vesicles were sonicated for 3 min and allowed to swell for 2 hours at 25° C. Liposomes were washed 3× with PBS by centrifugation at 100,000×g for 30 min and resuspended in 4 mL PBS. Liposomes were extruded 5× through both a 400 nm and 200 nm pore-size polycarbonate filter and stored at 4° C. until use. The resulting liposomes consisted of 7:1.3 molar ratio egg phosphatidylcholine:cholesterol, respectively. The efficiency of clodronate entrapment using this method was 7.8%.
For systemic elimination of macrophages, apoE−/− mice were fed a Western diet for a period of 8 weeks, after which 200 μL of PBS- or clodronate-liposomes (4 mg clodronate/dose) were injected i.p. daily for 5 days. After treatment, mice were injected i.p. with EC20-^99mTc and imaged, as described above.

[4] = biological target: T1, folate receptor; assay: Radioimaging (gamma scintigraphy, ROI analysis) of EC20-99mTc in ApoE-/- mice; format: in vivo; parameters: from tissue; host or cells: atherosclerotic aortas / aorto-cardiac region of living apoE-/- mice (lesion macrophages)
Description: as §1

T1 sequence (Q05685 21-227): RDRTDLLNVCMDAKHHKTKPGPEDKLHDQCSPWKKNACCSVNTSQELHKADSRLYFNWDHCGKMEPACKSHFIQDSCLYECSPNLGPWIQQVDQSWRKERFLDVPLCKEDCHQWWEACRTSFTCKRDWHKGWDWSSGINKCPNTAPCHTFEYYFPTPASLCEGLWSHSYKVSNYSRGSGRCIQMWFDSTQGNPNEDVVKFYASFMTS

## Nc1nc2ncc(CNc3ccc(C(=O)N[C@H](CCC(=O)NC[C@H](N)C(=O)N[C@@H](CC(=O)O)C(=O)N[C@@H](CS)C(=O)O)C(=O)O)cc3)nc2c(=O)[nH]1 [EC20]
[1]; ApoE-/- mice, Western Diet 0, 2, 12 or 26 weeks, H&E plaque size
  detectability of EC20 uptake in small, early, active atherosclerotic plaques: detectable

## Nc1nc2ncc(CNc3ccc(C(=O)N[C@H](CCC(=O)NC[C@H](N)C(=O)N[C@@H](CC(=O)O)C(=O)N[C@@H](CS)C(=O)O)C(=O)O)cc3)nc2c(=O)[nH]1 [EC20-^99mTc, metal not drawn]
[2]; apoE-/- mice on Western diet, compared to non-competed controls
  decrease of EC20-99mTc retention in the aortas by competition with excess folic acid: 41%
[2]; apoE-/- mice, 25 weeks on diet, gamma counting
  accumulation in the aortas, higher on Western chow than normal diet: ~120%
[2]; mouse, in vivo
  EC20-99mTc uptake in hearts relative to aortas: threefold lower
[3]
  reduction of EC20-99mTc uptake by clodronate-liposome treatment relative to PBS-containing liposomes: 65%
[4]; apoE-/- mice on Western diet, 25 weeks, folic acid competition
  signal intensity after pre-injection of 100-fold excess free folic acid: reduced to near background levels
[4]; apoE-/- mice, 25 weeks on diet, i.p., imaged after 4 h clearance
  average increase in EC20-99mTc signal intensity in the aorto-cardiac region, Western diet compared to normal rodent chow: ~70%
[1]; apoE-/- mice on Western diet, autoradiography
  radioactivity in the aortic root and arch with 100-fold greater dose of free folic acid: significantly reduced
[1]; apoE-/- mice, 25 weeks Western chow, serial sections: H&E, Mac-3, autoradiography
  correspondence of areas of high macrophage content and lesion formation with loci of elevated 99mTc emission: invariably corresponded
[1]; apoE-/- mice, whole aortas, phosphorimager
  uptake in the aortic root and arch by autoradiography, Western diet versus normal diet: significantly greater uptake
